Patent US9763997B2, “Spray drying vancomycin” (Hospira, Inc., priority 2011, dated 2017)
Structures can show the parent of a compound that is named as a salt.

Columns and labels:
[1] = Stability testing of spray dried batches at 25° C./60% RH, 30° C./60% RH, 40° C./75% RH (moisture by Karl Fischer, pH of reconstituted solution, reconstitution time, chromatographic purity); format: physicochemical; settings: Initial
Experimental: (§1) Batches for stability testing were made using the spray dried formulation of vancomycin HCl (15% by weight), PEG-400 (3% by weight), mannitol (3% by weight) in WFI, with the API sourced from Abbott Laboratories (North Chicago, Ill.). Spray dried batches were stored at 25° C./60% Relative Humidity (RH), 30° C./60% RH, and 40° C./75% RH for three months. The stability data on moisture by Karl Fischer, pH (of the reconstituted solution), reconstitution time and chromatographic purity are presented in Table 7. The chromatographic purity was examined using the analytical HPLC method described in the current USP (United States Pharmacopeia) monograph for vancomycin. The test results for the API lot used to make the spray dried product were also listed for comparison.
The chromatographic purity of vancomycin B for all samples tested in this study were within USP specifications. All samples were stored at the accelerated conditions of 40° C./75% RH for 3 months and met USP criterion for vancomycin B by chromatographic purity (NLT 80% vancomycin B).

[2] = Chromatographic purity (vancomycin B and impurities), analytical HPLC method of the USP vancomycin monograph; format: physicochemical
Experimental: as §1

Compound | % Vancomycin B [1] [%] | Other ([2]; Table 8, other impurities) [%] | N-Demethylvancomycin ([2]; Table 8, tested for impurities) [%] | Vancomycin B ([2]; Table 8, tested for impurities) [%]
CN[C@H](CC(C)C)C(=O)N[C@H]1C(=O)N[C@@H](CC(N)=O)C(=O)N[C@H]2C(=O)N[C@H]3C(=O)N[C@H](C(=O)N[C@H](C(=O)O)c4cc(O)cc(O)c4-c4cc3ccc4O)[C@H](O)c3ccc(c(Cl)c3)Oc3cc2cc(c3O[C@@H]2O[C@H](CO)[C@@H](O)[C@H](O)[C@H]2O[C@H]2C[C@](C)(N)[C@H](O)[C@H](C)O2)Oc2ccc(cc2Cl)[C@H]1O [API Lot 09097619, Vancomycin HCl] | 91.9 |  |  | 
CN[C@H](CC(C)C)C(=O)N[C@H]1C(=O)N[C@@H](CC(N)=O)C(=O)N[C@H]2C(=O)N[C@H]3C(=O)N[C@H](C(=O)N[C@H](C(=O)O)c4cc(O)cc(O)c4-c4cc3ccc4O)[C@H](O)c3ccc(c(Cl)c3)Oc3cc2cc(c3O[C@@H]2O[C@H](CO)[C@@H](O)[C@H](O)[C@H]2O[C@H]2C[C@](C)(N)[C@H](O)[C@H](C)O2)Oc2ccc(cc2Cl)[C@H]1O [API, Vancomycin Hydrochloride] |  | 4.5 | 0.6 | 94.9
